Test results published in patent US6566088B1, “Prolyl-4-hydroxylases” (Board of Regents, The University of Texas System, priority 2001, dated 2003).
Where a name gives a salt, the structure may show the parent alone. Read-outs that look alike come from different tables or passages of the source.

Key:
human HIF-1a ODD peptide = human HIF-1a ODD peptide (Homo sapiens, UniProt Q16665, M561A/M568A); experiment: [35S]-pVHL pull-down prolyl hydroxylase assay with biotinylated HIF-1a ODD peptide; assay type: biochemical; details: enzyme in vitro transcribed/translated in rabbit reticulocyte lysate; ascorbate, 2-oxoglutarate, FeSO4 present
HPH 2 = target: T1, HPH 2 (Homo sapiens, UniProt Q9GZT9, DEL76-177); experiment: Activity of purified recombinant HPH 2 on HIF-1a peptide substrate; assay type: biochemical; details: additive added (CoCl2 in excess)
T1 construct: MBP (N); made in house; host or cells: E. coli BL21-CodonPlus-RIL
T1 sequence (Q9GZT9 with tags, fused parts or gaps DEL76-177): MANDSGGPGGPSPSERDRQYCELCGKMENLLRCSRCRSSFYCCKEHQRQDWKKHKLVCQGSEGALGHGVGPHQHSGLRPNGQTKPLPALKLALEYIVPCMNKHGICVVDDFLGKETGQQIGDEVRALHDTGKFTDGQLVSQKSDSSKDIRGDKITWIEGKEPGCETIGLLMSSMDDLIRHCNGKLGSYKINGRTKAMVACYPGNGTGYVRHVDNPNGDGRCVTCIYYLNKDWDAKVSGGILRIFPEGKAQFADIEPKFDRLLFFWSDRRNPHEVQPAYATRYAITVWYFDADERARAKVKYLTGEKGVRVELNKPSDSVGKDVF

[1] = test system: prolyl-4-hydroxylase activity capable of modifying a proline-containing peptide derived from the ODD; details: cited from earlier work

Compound: HPH 3: human HPH 1 paralog, Genbank BC001723
- prolyl hydroxylase activity (pVHL association with the biotinylated peptide) (human HIF-1a ODD peptide): catalyze the hydroxylation

Compound: O=S(=O)([O-])[O-].[Fe+2] [FeSO4]
- effect on activity of the HPH 2 enzyme (HPH 2): greatly stimulated

Compound: CoCl2
- prolyl-4-hydroxylase activity in extracts [1]: greatly diminished

Compound: CC(=O)N(O)CCCCCNC(=O)CCC(=O)N(O)CCCCCNC(=O)CCC(=O)N(O)CCCCCN [deferoxamine mesylate]
- prolyl-4-hydroxylase activity in extracts ([1]; extracts prepared in the presence of hypoxia mimics): greatly diminished
